The numbers were not newly measured in publication PMC3150604 (Journal of medicinal chemistry, 2011), which cites them from elsewhere.

The data set has as its target σ1 receptor. The note with it: read-out: σ1 receptor Ki; literature value ref 46.

By Ki is commonly meant the equilibrium dissociation constant of an inhibitor or competing ligand from its target. Take `O[C@H]1CCCC[C@@H]1N1CCC(c2ccc(I)s2)CC1` [compound 5, (1S,2S)-2-(4-(5-iodothiophen-2-yl)piperidin-1-yl)cyclohexanol]: the Ki is 9.39 nM.
